“And” between values parts separate entries of the source, which are not always exact repeats. Identical values can stand only once.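 Following 48 hours of exposure in 96-well plates, responses at five concentrations were used to interpolate endpoints linearly. GI50 = concentration required for 50% inhibition of growth. TGI marks complete inhibition of growth.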
How the values were obtained:
Experiment in all cases: NCI tumour cell line growth inhibition, 48 h
[1] = system: HL-60(TB) leukemia
[2] = system: K-562 leukemia
[3] = system: M14 melanoma
[4] = system: OVCAR-5 ovarian
[5] = system: OVCAR-8 ovarian
[6] = system: SNB-75 CNS
[7] = system: SW-620 colon
[8] = system: EKVX NSCLC
[9] = system: UO-31 renal
[10] = system: MCF7 breast

`C/C(=N\NC(=S)N1CCCCCC1)c1nccnc1C` was tested, and the TGI [1] was 2.95 µM, the TGI [2] was > 100 µM and the TGI [3] was 0.654 µM. The TGI [4] was > 100 µM, the TGI [5] was > 100 µM and the TGI [6] was 21.9 µM. For the same molecule, the TGI [7] was > 100 µM.

For `CC(C)(C)NNC(=O)/C(=C/c1ccc(Oc2ccc(Cl)c(Cl)c2)cc1)NC(=O)c1ccccc1`, the TGI [8] was > 100 µM, the TGI [1] was > 100 µM and the TGI [2] was > 100 µM. The TGI [3] was > 100 µM, the TGI [4] was > 100 µM and the TGI [5] was > 100 µM. The TGI [6] was > 100 µM and the TGI [9] was > 100 µM.

In the case of `O=P(c1ccccc1)(c1ccccc1)C1CC=C(c2ccccc2)C2(CCCC2)C1` (centres undefined), the TGI [8] is reported as > 100 µM, the TGI [1] is reported as 50.7 µM and the TGI [2] is reported as > 100 µM. For the same molecule, the TGI [3] was > 100 µM, the TGI [4] was > 100 µM and the TGI [5] was > 100 µM. The TGI [6] was > 100 µM, the TGI [7] was > 100 µM and the TGI [9] was 75.3 µM.

For `COc1ccc2[nH]cc(CCNC(C)=O)c2c1`, the TGI [8] was > 100 µM, the TGI [1] was > 100 µM and the TGI [2] was > 100 µM. The TGI [3] was > 100 µM, the TGI [4] was > 100 µM and the TGI [5] was > 100 µM. For the same molecule, the TGI [6] was > 100 µM, the TGI [7] was 24.1 µM and the TGI [9] was > 100 µM.

For `CCCN1C(=O)C/C(=C\C(C)=O)Nc2ccccc21`, the TGI [8] was > 100 µM, the TGI [2] was > 100 µM and the TGI [3] was > 100 µM. The TGI [4] was > 100 µM, the TGI [5] was > 100 µM and the TGI [6] was > 100 µM. The TGI [7] was > 100 µM and the TGI [9] was > 100 µM.

In the case of `O=C1NC(=O)C(C(=O)C(=O)Nc2ccc(Br)cc2)C(=O)N1`, the TGI [8] is reported as > 100 µM, the TGI [1] is reported as > 100 µM and the TGI [2] is reported as > 100 µM. The TGI [3] was > 100 µM, the TGI [5] was > 100 µM and the TGI [6] was > 100 µM. For the same molecule, the TGI [7] was > 100 µM and the TGI [9] was > 100 µM.

In the case of `O=C(Cc1nc2ccccc2s1)C(=O)Nc1ccc(Cl)cc1`, the TGI [8] is reported as > 100 µM, the TGI [1] is reported as > 100 µM and the TGI [2] is reported as > 100 µM. For the same molecule, the TGI [3] was > 100 µM, the TGI [4] was > 100 µM and the TGI [5] was > 100 µM. For the same molecule, the TGI [6] was > 100 µM, the TGI [7] was > 100 µM and the TGI [9] was > 100 µM.

Molecule `CNc1ccccc1C(=O)N/N=C/C=C/c1ccccc1` has a GI50 [1] of 0.566 µM, a TGI [1] of 18.5 µM and a GI50 [2] of 0.44 µM. The TGI [2] was > 100 µM, the GI50 [3] was 0.6 µM and the TGI [3] was 24.8 µM. For the same molecule, the GI50 [10] was 0.49 µM, the TGI [10] was > 100 µM and the GI50 [4] was 6.64 µM. For the same molecule, the TGI [4] was > 76.5 µM, the GI50 [5] was 3.41 µM and the TGI [5] was > 100 µM. The GI50 [6] was 0.673 µM, the GI50 [7] was 0.454 µM and the TGI [7] was > 100 µM. The GI50 [9] was 8.08 µM and the TGI [9] was 97.9 µM.

`COC(=O)c1c[nH]cc1CCc1c[nH]cc1C(=O)OC` was tested, and the TGI [8] was > 100 µM, the TGI [1] was > 100 µM and the TGI [2] was > 100 µM. The TGI [4] was > 100 µM, the TGI [5] was > 100 µM and the TGI [7] was > 100 µM.

For `CSC(=S)c1ccc(C(=S)SC)cc1`, the TGI [8] was > 100 µM, the TGI [1] was > 100 µM and the TGI [2] was > 100 µM. The TGI [3] was > 100 µM, the TGI [4] was > 100 µM and the TGI [5] was > 100 µM. For the same molecule, the TGI [6] was > 100 µM, the TGI [7] was > 100 µM and the TGI [9] was > 100 µM.

For `COc1cc(Nc2cnc3cc(C(F)(F)F)ccc3n2)cc(OC)c1OC`, the TGI [8] was > 100 µM, the TGI [1] was > 100 µM and the TGI [4] was > 100 µM. For the same molecule, the TGI [5] was > 100 µM, the TGI [6] was > 100 µM and the TGI [7] was > 100 µM. For the same molecule, the TGI [9] was > 100 µM.

`COc1ccc(C(=O)/C=C/c2ccc(O)c(O)c2F)c(OC)c1` was tested, and the GI50 [8] was 10.9 µM, the TGI [8] was 30.3 µM and 28.9 µM and the TGI [2] was 75 µM and 18.1 µM. The TGI [3] was 16.7 µM and 28 µM, the GI50 [10] was 0.334 µM and the TGI [10] was 9.83 µM and 13.1 µM. For the same molecule, the GI50 [4] was 15.3 µM, the TGI [4] was 23.3 µM and 34.8 µM and the GI50 [5] was 8.81 µM. For the same molecule, the TGI [5] was 65.5 µM and > 100 µM, the GI50 [6] was 4.53 µM and the TGI [6] was 40.3 µM and 18.9 µM. The TGI [7] was 75 µM and 25.5 µM, the GI50 [9] was 7.04 µM and the TGI [9] was 16.3 µM and 38.4 µM.

With `Cc1cc2c(cc1C)NC(=O)C(NC(=O)/C=C/c1ccccc1)C=N2` (centres undefined) the TGI [8] was > 100 µM, the TGI [1] was 43.5 µM and the TGI [2] was 62.2 µM. For the same molecule, the TGI [3] was > 100 µM, the TGI [4] was > 100 µM and the TGI [5] was > 100 µM. The TGI [6] was > 100 µM, the TGI [7] was 19.6 µM and the TGI [9] was > 100 µM.

In the case of `O=C(CCN1CCN(c2cccc(Cl)c2)CC1)N1CCc2c([nH]c3ccccc23)C1c1cccnc1` (centres undefined), the TGI [8] is reported as 26.3 µM, the GI50 [1] is reported as 3.19 µM and the TGI [1] is reported as 5.53 µM and 11.2 µM. It also gave a GI50 [2] of 3.99 µM, a TGI [2] of 18.6 µM and a GI50 [3] of 6.06 µM. For the same molecule, the TGI [3] was 9.22 µM and 19 µM, the GI50 [4] was 5.75 µM and the TGI [4] was 23.3 µM. It also gave a TGI [5] of 21.7 µM, a GI50 [6] of 6.24 µM and a TGI [6] of 17.1 µM. For the same molecule, the TGI [7] was 23.8 µM, the GI50 [9] was 4.7 µM and the TGI [9] was 16.2 µM.

`C/C(CN1C(=O)c2ccccc2C1=O)=N\NS(=O)(=O)c1cccc([N+](=O)[O-])c1` was tested, and the TGI [8] was > 100 µM, the TGI [1] was > 100 µM and the TGI [2] was > 100 µM. For the same molecule, the TGI [3] was > 100 µM, the TGI [4] was > 100 µM and the TGI [5] was > 100 µM. For the same molecule, the TGI [6] was > 100 µM, the TGI [7] was > 100 µM and the TGI [9] was > 100 µM.

In the case of `CC(=O)N1CCC2(C=Nc3ccccc32)CC1`, the TGI [8] is reported as > 100 µM, the TGI [1] is reported as > 100 µM and the TGI [2] is reported as > 100 µM. The TGI [3] was > 100 µM, the TGI [4] was > 100 µM and the TGI [5] was > 100 µM. For the same molecule, the TGI [6] was > 100 µM and the TGI [7] was > 100 µM.

In the case of `CCN(CC)CCCN(c1cc(OC)cc2nccnc12)S(=O)(=O)c1ccc(C)cc1`, the TGI [8] is reported as > 100 µM, the TGI [1] is reported as > 100 µM and the TGI [2] is reported as > 100 µM. For the same molecule, the TGI [3] was > 100 µM, the TGI [4] was > 100 µM and the TGI [5] was > 100 µM. For the same molecule, the TGI [6] was > 100 µM, the TGI [7] was > 100 µM and the TGI [9] was > 100 µM.

With `NC(=S)/N=C/c1c(O)c2ccccc2oc1=O` the TGI [8] was > 100 µM, the TGI [1] was > 100 µM and the TGI [2] was > 100 µM. For the same molecule, the TGI [3] was > 100 µM, the TGI [4] was > 100 µM and the TGI [5] was > 100 µM. The TGI [6] was 87 µM, the TGI [7] was > 100 µM and the TGI [9] was > 100 µM.

With `Oc1cccc2c1NC1=C(CCC/C1=C\c1ccccc1)C2` the TGI [8] was > 100 µM, the TGI [1] was > 100 µM and the TGI [2] was > 100 µM. For the same molecule, the TGI [3] was > 100 µM, the TGI [5] was > 100 µM and the TGI [7] was > 100 µM. The TGI [9] was > 100 µM.

In the case of `CC(=O)Nc1ccc(/C=C(\NC(=O)c2ccccc2)c2nc3ccc4c(c3[nH]2)C(=O)c2ccccc2C4=O)cc1`, the TGI [8] is reported as > 100 µM, the TGI [2] is reported as > 100 µM and the TGI [3] is reported as > 100 µM. For the same molecule, the TGI [4] was > 100 µM, the TGI [5] was > 100 µM and the TGI [6] was 61.5 µM. For the same molecule, the TGI [7] was > 100 µM and the TGI [9] was 9.17 µM.

In the case of `CCNc1nnc(CSc2nc(-c3ccccc3)c(-c3ccccc3)[nH]2)s1`, the TGI [8] is reported as 44.4 µM, the TGI [1] is reported as 37 µM and the TGI [3] is reported as 35.7 µM. It also gave a TGI [4] of 39.8 µM, a TGI [5] of 30 µM and a TGI [6] of 82.6 µM. For the same molecule, the TGI [7] was 44.1 µM and the TGI [9] was 29.5 µM.

With `Cn1ncc(=S)[nH]c1=S` the TGI [8] was > 100 µM, the TGI [2] was > 100 µM and the TGI [3] was > 100 µM. For the same molecule, the TGI [4] was > 100 µM, the TGI [5] was > 100 µM and the TGI [6] was > 100 µM. The TGI [7] was > 100 µM and the TGI [9] was > 100 µM.

In the case of `CN(C)c1ccc(-c2cc(=O)c3ccccc3[nH]2)cc1`, the TGI [8] is reported as > 100 µM, the TGI [1] is reported as > 100 µM and the TGI [2] is reported as > 100 µM. The TGI [3] was > 100 µM, the TGI [5] was > 100 µM and the TGI [7] was > 100 µM. The TGI [9] was > 100 µM.

From PubChem BioAssay (NCI)
